This is an account of results in patent publication US20080274090A1, “REVERSAL OF INSULIN-DEPENDENT DIABETES BY ISLET-PRODUCING STEM CELLS, ISLET PROGENITOR CELLS AND ISLET-LIKE STRUCTURES” (UNIVERSITY OF FLORIDA RESEARCH FOUNDATION, INC., priority 2000, published 2008).

No end group written: not given here. Where only a bound is given, the exact number is not on record here.

Test [1] relates to IdIs derived from NOD/Uf pancreatic IPSCs. The test can be described thus: Insulin content and secretion of cultured IdIs upon glucose stimulation (insulin ELISA). The test is classed as cell-based, mouse. To be noted: for insulin release from IdIs by secretagogues: 10 mM arginine or 1 nM GLP-1 with 17.5 mM glucose, final 3 hours, lesser degree than nicotinamide.
Experimental: To determine insulin secretion, 300 IdIs derived from NOD/Uf pancreatic IPSCs were cultured in vitro for 5 days in EHAA medium containing either 0.5% NMS or prediabetic NOD mouse serum with or without nicotinamide (1-10 mM). At the end of the culture period, cells were washed twice in Krebs ringer buffer (KRB) and stimulated with 17.5 mM glucose in KRB for 3 hours.
Three hundred IdIs (from culture flasks containing EHAA-0.5% NMS medium) were seeded in 24 well plates in 2 ml of EHAA medium containing 0.5% of NMS with or without nicotinamide (1-10 mM) for 5 days at 37° C. (5% CO2). For secretagogues, IdIs were cultured in EHAA-0.5% NMS medium for 5 days. Three hours prior to the end of the incubation period, medium was removed and IdIs gently washed twice with KRB. To stimulate insulin secretion, 17.5 mM glucose was added to wells in 1 ml of KRB, and incubated at 37° C. for 3 hrs. Following incubation, culture supernatants were stored at −70° C. until use. The IdIs in each well were then subjected to 1 ml of ice-cold acid-ethanol extraction overnight at 4° C., and cell-free extracts were neutralized with Tris base (400 mM final concentration) prior to storing at −70° C. until use. To test the effect of secretagogues, 10 mM arginine and 1 nM GLP-1 (Sigma Chemicals, St Louis, Mo.) were used for the final 3 hours incubation in KRB. The insulin in the supernatants and in the extract were determined using an insulin ELISA kit (Crystal Chemical Inc., Chicago, Ill.), with rat insulin standard for quantitation (supplied in the kit). Comparisons between groups were done using the one tailed t-test.
Test [2] concerns IPSC line #7. The test can be described thus: Expression of development/differentiation factors in IPSC line #7 under nicotinamide. The test is classed as cell-based, mouse. As to the method:
Nicotinamide has also been determined to enhance expression of various factors involved in the development/differentiation of the pancreas. […] A differentially regulated expression of Ins I and II was also apparent: Ins I was expressed at lower concentrations of nicotinamide (1-20 mM), while Ins II was expressed at 20-40 mM nicotinamide. Glucagon expression was visible only at a low dose of nicotinamide (<10 mM), while amylase expression was maintained at all doses (0-40 mM) (data not shown).

Test [3] has as its system human cell line (#H3). As to the kind of experiment: Differentiation of human IPSCs with nicotinamide and ECM (immunohistochemical staining). To be noted: upon treatment with nicotinamide. The test is classed as cell-based. The source says: Several lines were derived from human pancreatic ductal preparation provided by DRI (Miami, Fla.). […] Only about 2% of the cells express insulin (FIG. 16M). None of the cells express tyrosine hydroxylase (FIG. 16G).

For `N=C(N)NCCC[C@H](N)C(=O)O` [arginine], in test [1], the “insulin release from IdIs by secretagogues” value is on record as “induced insulin release”.

Take `NC(=O)c1cccnc1` [nicotinamide]: in test [2] (IPSC line #7), the “nicotinamide concentration at which Ins I was expressed” value fell in the range of 1 to 20 mM and the “nicotinamide concentration at which Ins II was expressed” value lay within 20 to 40 mM. Further, in test [2] (IPSC line #7, data not shown), the “nicotinamide dose at which glucagon expression was visible” value is less than 10 mM and the “nicotinamide doses at which amylase expression was maintained” value was in the range of 0 to 40 mM. In addition, the “expression of development/differentiation factors” value in test [2] (at different doses, data not shown) is “enhancement of Isl-1, beta2/neuroD, IPF-1, Nkx 2.2 and 6.1”. The “differentiation of IPCs to IdIs” value in test [1] (in combination with epidermal growth factor or hepatocyte growth factor, data not shown) is listed as “induced the differentiation of IPCs to IdIs”. In addition, the “insulin content of IdIs” value in test [1] (nicotinamide 1-10 mM for 5 days, then 17.5 mM glucose 3 hours, versus glucose alone) is “increased insulin content”. Besides, the “insulin secretion of IdIs” value in test [1] (nicotinamide 1-10 mM for 5 days, then 17.5 mM glucose 3 hours, versus glucose alone, P<0.05) is given as “significantly increased levels of insulin”. In addition, in test [3], the cells expressing insulin entry was “about 2%”; the “cells expressing tyrosine hydroxylase” value is on record as “None”; the “expression of pancreatic products” value is “express glucagon (FIG. 16K), amylase (FIG. 16I), cytokeratin 7 (FIG. 16C), and cytokeratin 19 (FIG. 16E)”.

Turning to “glucagon like peptide-1 (HAEGTFTSDVSSYLEGQAAKEFIAWLVKGR; ends and bridges not checked; UniProt P01275 98-127, looked up) [GLP-1, secretagogue stimulating β cells through elevation of cAMP and the protein kinase A pathway]”, the “insulin release from IdIs by secretagogues” value in test [1] is “induced insulin release”.
